# Assays:
# [1] = system: MOG35-55-induced murine EAE model; test: Induction/maintenance treatment paradigm in MOG35-55-induced murine EAE model (Example 9); type: in vivo, mice
# Experimental: Compound 2, natalizumab and DMF were prepared as described in Example 8. Table 5 (see Example 4) details the expected clinical symptoms and scoring criteria used in this study.
# This study was designed to evaluate the therapeutic effects of Compound 2 versus natalizumab in a treatment induction/maintenance paradigm (induction cohort), and Compound 2 versus DMF after natalizumab (maintenance cohort). In the induction cohorts, animals were randomized 2:1:1 natalizumab:Compound 2:control when they reached a score of 2.5, as per FIG. 6A. Animals in the natalizumab cohort were given 100 μg natalizumab/mouse every 3 days for 3 doses before being randomized to the maintenance cohort. Animals randomized into the maintenance cohort after natalizumab received maintenance doses of DMF or Compound 2 (1:1 randomization), as per their group assignment for 14 days. Animals in the Compound 2 induction cohort were dosed with 30 μg Compound 2/mouse SC QD for a maximum of 7 days, or 3 consecutive days of disease score <2.5, at which time they were placed on a maintenance dose of 3 μg/mouse SC QD for 14 days. All animals in all groups were monitored for 14 days after the last dose for disease score and survival.
# Disease control (induction therapy): Disease control was defined as maintaining a clinical score of 2.5 or less after randomization. Animals in the different treatment groups were monitored after the 2:1:1 randomization. Clinical scores were recorded daily for all animals and plotted over time. A score of >2.5 was recorded as an event and analyzed by survival analysis in GraphPad Prism 9. Animals not reaching a clinical score of 2.5 by the end of the induction period (day 7) were assigned a score of zero for the survival analysis.
# Survival (induction therapy): Death due to disease (clinical score 5) during the treatment induction period was recorded as an event “1”, animals surviving until the end of the induction period, day 7 after randomization, were censored on day 7 for the purposes of survival analysis.
# Disease control (maintenance therapy): At the end of the induction period with natalizumab, animals were randomized 1:1 to the DMF maintenance group or Compound 2 maintenance group as per FIG. 6A. Animals were dosed for 14 days, and clinical scores were monitored daily.
# Survival (maintenance therapy): Death by disease (clinical score of 5) was recorded as an event “1”, death due to ulceration or ex vivo analysis was recorded as “0”. Animals surviving until the end of the study were recorded as “0” on the last day of the study. Survival analysis was done in GraphPad Prism 9.
# [2] = system: Foxp3+/CD4+ T-cells of MS patients; test: PBMCs of multiple sclerosis patients treated ex vivo; type: cell-based, human; conditions: up to 2.5 μM, five days, six subjects
# Experimental: Total human PBMCs were isolated from six subjects with confirmed diagnosis of MS. On Day 0, 2×10^5 cells/well were incubated in a 96 round bottomed-well plate alone or with up to 2.5 μM Compound 2 for five days. On Day 5, cells were collected, washed and stained for surface staining (CD3, CD4), then viability dye to exclude dead cells. Intranuclear staining was performed after cell fixation and permeabilization for transcription factor FoxP3. Cells were washed and fixed for acquisition by Attune NXT flow cytometer. Data were analyzed by FlowJov10.
# [3] = system: human B-cells (CD19+CD71+IgM+); test: Regulatory B-cell induction in human PBMCs; type: cell-based; conditions: 10 ng/ml, five days
# Experimental: 2×10^5 Total PBMCs or T-cell depleted PBMCs were cultured in a 96-well plate in the presence of ascending doses of Compound 2 ranging from 0 to 10 ng/ml for five days. At day 5, cells were washed and stained for CD19, CD71 and IgM for 30 minutes on ice, then cells were washed with PBS, and stained with viability dye to exclude dead cells.
# CD4+/Foxp3+ T-cells = test: Foxp3 induction in human total PBMCs or sorted T-cells; type: cell-based; conditions: 3 ng/ml; for percentage of CD4+/Foxp3+ T-cells: five days
# Experimental: 2×10^5 Total PBMCs or sorted T-cells (CD3^+) were cultured in 96-well plates in the presence of ascending doses of Compound 2 ranging from 0 to 3 ng/ml for five days. On day 5, cells were washed and stained for CD3 and CD4 for 30 minutes on ice, then cells were washed with PBS and stained with viability dye to exclude dead cells. Stained cells were fixed/permeabilized and further stained for Foxp3. Finally, cells were washed and fixed for acquisition by Attune NXT flow cytometer. Data were analyzed by FlowJov10.
# NMO mouse model = test: AQP4-p201-p220-induced neuromyelitis optica mouse model, fundoscopy; type: in vivo, mice; conditions: number of eyes since randomization, 3 μg SC daily, 20 eyes
# Experimental: NMO is a CNS autoimmune inflammatory demyelinating disease that causes optico-spinal disorder leading to paralysis and vision loss. NMO mouse model was established by using AQP4-p201-p220 peptide (from Genemed Synthesis Inc.). Briefly, C57BL/6 mice (n=30) were immunized on day 0 with 100 micrograms of the AQP4-p201-p220 peptide emulsified in CFA. Mice were injected subcutaneously at the tail base under anesthesia. On the day of injection (Day 0) and two days later, mice received intraperitoneal injection of pertussis toxin (PTx) in PBS at 200 ng/mouse/dose (0.1 ml).
# Prior to immunizing the mice on day 0, both eyes of each of the mice were imaged by fundoscopy. Fundoscopy was employed to study (a) optic disc inflammation, and (b) retinal damage (exudates as evidence of inflammation). Mice were monitored for disease onset daily after one week of immunization (day 7) for clinical symptoms, as per the scoring system developed by Ramadan et al., Brain 2016. Mice with a score of 1.0 or any […] symptoms were immediately randomized into either group A or group B treatment regimens to receive up to 14 days of treatment. Group A (n=10) received Compound 2 3 μg SC daily, and Group B (n=8) served as a control and was treated with a placebo.
# Fundoscopy was conducted on day 6 post-immunization and was later performed approximately once every four days, i.e., on days 9, 13, 16, 22, and 26. Each eye was scored for inflammation in the optic disc and retinal damage evident by the appearance of ‘exudates’ (blotchiness) in the fundus image. Eye samples were collected during the onset of disease and post-randomization after at least 9-12 days of treatment and on day 14 (end of study) to assess the histology of both the optic nerve and the retina.
# [4] = Compound 2 induction followed by Compound 2 maintenance
compound,measurement,setting,value
"N[C@@H](CNC(=O)Cc1ccc(OCc2cccc3ccccc23)cc1)C(=O)O [Compound 2, (S)-2-Amino-3-(2-(4-(naphthalen-1-ylmethoxy)phenyl)acetamido)propanoic acid]",clinical score on the last day of dosing,[1]; [4],2.2 (SD=0.3)
same,mean score on the first day of maintenance therapy,[1]; [4],2.3 (SD=0.4)
same,mice showing clinical score improvement and switched to maintenance before end of induction period,[1]; induction period,at least 4 out of the 10
same,animals that survived the treatment induction period,"[1]; induction period, day 7 after randomization",9/9
same,"last measured score, day 7 after initiation of maintenance",[1]; maintenance after natalizumab induction,2.5 (SD=0)
same,mortality rate in maintenance cohort,"[1]; maintenance after natalizumab induction, n=4 in each group",0%
same,survival in maintenance cohort,"[1]; maintenance after natalizumab induction, to end of study",All animals randomized to Compound 2 maintenance after natalizumab induction survived until the end of the study
same,mean clinical score by day 7 of induction,"[1]; randomized at score 2.5, Compound 2 30 μg SC",2.25 (SD=0.26)
same,animals that progressed to a clinical score >2.5 during induction,"[1]; randomized at score 2.5, natalizumab 100 μg/mouse every 3 days, Compound 2 30 μg SC",0/10
same,MS patients whose T-cells responded (increase in percentage of Foxp3+/CD4+ T-cells),[2],five out of six
same,percentage of B-reg (CD19+CD71+IgM+),[3]; T-cell depleted PBMCs,14.0%
same,percentage of B-reg (CD19+CD71+IgM+),[3]; total PBMC cultures,17.5%
same,percentage of CD4+/Foxp3+ T-cells,CD4+/Foxp3+ T-cells; isolated T-cells (sorted),2.27%
same,percentage of CD4+/Foxp3+ T-cells,CD4+/Foxp3+ T-cells; total PBMC,5.2%
same,increase of percentage of CD4+/Foxp3+ T-cells,CD4+/Foxp3+ T-cells; isolated T-cells (sorted),606%
same,increase of percentage of CD4+/Foxp3+ T-cells,CD4+/Foxp3+ T-cells; total PBMC,171%
same,Cleared/Clearing eyes (recovery),NMO mouse model,4
same,Maintained/No change,NMO mouse model,14
same,Worsening conditions,NMO mouse model,0
